Results as given in patent US9296725B2, “Heterocyclyl pyrimidine analogues as TYK2 inhibitors” (Cellzome Limited, priority 2012, dated 2016).
pIC50: −log10 of the molar value. Where two headings read alike, the source gives them in different places.

Columns and labels:
TYK2 = target: T1, TYK2 (Homo sapiens, UniProt P29597); test: Kinobeads assay, TYK2 (competition binding in mixed Molt4/Ramos cell lysate, dot blot detection)
T1 construct: endogenous in cells; host or cells: Molt4 (ATCC CRL-1582) and Ramos (ATCC CRL-1596), mixed lysate 1:2
T1 sequence (P29597 whole entry): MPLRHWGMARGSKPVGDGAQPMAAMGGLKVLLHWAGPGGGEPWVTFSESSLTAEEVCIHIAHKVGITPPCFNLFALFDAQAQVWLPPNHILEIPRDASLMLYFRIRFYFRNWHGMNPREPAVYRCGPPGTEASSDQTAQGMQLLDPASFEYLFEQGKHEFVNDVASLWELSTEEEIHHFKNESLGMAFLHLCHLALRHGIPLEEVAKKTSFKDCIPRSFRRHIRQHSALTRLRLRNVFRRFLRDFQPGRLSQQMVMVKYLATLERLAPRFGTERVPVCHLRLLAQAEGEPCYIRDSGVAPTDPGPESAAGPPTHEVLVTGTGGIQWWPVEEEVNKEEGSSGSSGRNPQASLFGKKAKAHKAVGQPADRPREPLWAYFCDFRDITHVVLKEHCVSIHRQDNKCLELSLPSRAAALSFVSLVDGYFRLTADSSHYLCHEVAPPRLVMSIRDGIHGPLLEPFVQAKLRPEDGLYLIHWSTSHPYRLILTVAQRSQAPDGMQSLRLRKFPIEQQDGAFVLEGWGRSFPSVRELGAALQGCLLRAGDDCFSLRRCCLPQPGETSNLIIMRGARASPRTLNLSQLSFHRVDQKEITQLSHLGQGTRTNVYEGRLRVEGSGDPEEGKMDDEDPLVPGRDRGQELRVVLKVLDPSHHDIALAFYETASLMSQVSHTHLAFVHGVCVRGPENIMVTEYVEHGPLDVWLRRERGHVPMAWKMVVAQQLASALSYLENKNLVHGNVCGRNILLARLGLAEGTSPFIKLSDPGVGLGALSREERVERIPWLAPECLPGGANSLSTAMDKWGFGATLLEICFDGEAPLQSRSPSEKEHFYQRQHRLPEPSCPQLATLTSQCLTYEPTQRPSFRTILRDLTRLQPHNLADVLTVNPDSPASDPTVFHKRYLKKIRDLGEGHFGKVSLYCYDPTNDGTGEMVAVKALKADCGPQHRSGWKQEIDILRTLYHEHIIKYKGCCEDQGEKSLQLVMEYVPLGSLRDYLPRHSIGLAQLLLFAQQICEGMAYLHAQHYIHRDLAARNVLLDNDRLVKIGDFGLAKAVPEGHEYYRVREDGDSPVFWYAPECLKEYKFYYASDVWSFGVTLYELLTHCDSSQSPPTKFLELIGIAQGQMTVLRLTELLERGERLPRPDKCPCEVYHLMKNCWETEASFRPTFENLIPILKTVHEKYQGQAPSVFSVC
Experimental: (§1) The compounds of the present invention as described in the previous examples were tested in a Kinobeads™ assay as described for ZAP-70 (WO-A 2007/137867). Briefly, test compounds (at various concentrations) and the affinity matrix with the immobilized aminopyrido-pyrimidine ligand 24 were added to cell lysate aliquots and allowed to bind to the proteins in 10 the lysate sample. After the incubation time the beads with captured proteins were separated from the lysate. Bound proteins were then eluted and the presence of TYK2 and JAK2 was detected and quantified using specific antibodies in a dot blot procedure and the Odyssey infrared detection system. Dose response curves for individual kinases were generated and IC50 values calculated. Kinobeads™ assays have been previously described (WO-A 2007/137867; WO-A 2006/134056).
(§2) The affinity matrix was washed two times with 15 mL of 1×DP buffer containing 0.2% NP40 (IGEPAL® CA-630, Sigma, #13021) and then resuspended in 1×DP buffer containing 0.2% NP40 (3% beads slurry). 5×DP buffer: 250 mM Tris-HCl pH 7.4, 25% Glycerol, 7.5 mM MgCl2, 750 mM NaCl, 5 mM Na3VO4; filter the 5×DP buffer through a 0.22 μm filter and store in aliquots at −80° C. The 5×DP buffer is diluted with H2O to 1×DP buffer containing 1 mM DTT and 25 mM NaF.
(§3) Stock solutions of test compounds were prepared in DMSO. In a 96 well plate 30 μL solution of diluted test compounds at 5 mM in DMSO were prepared. Starting with this solution a 1:3 dilution series (9 steps) was prepared. For control experiments (no test compound) a buffer containing 2% DMSO was used.
(§4) Molt4 cells (ATCC catalogue number CRL-1582) and Ramos cells (ATCC catalogue number CRL-1596) were grown in 1 L Spinner flasks (Integra Biosciences, #182101) in suspension in RPMI 1640 medium (Invitrogen, #21875-034) supplemented with 10% Fetal Bovine Serum (Invitrogen) at a density between 0.15×10^6 and 1.2×10^6 cells/mL. Cells were harvested by centrifugation, washed once with 1×PBS buffer (Invitrogen, #14190-094) and cell pellets were frozen in liquid nitrogen and subsequently stored at −80° C. Cells were homogenized in a Potter S homogenizer in lysis buffer: 50 mM Tris-HCl, 0.8% NP40, 5% glycerol, 150 mM NaCl, 1.5 mM MgCl2, 25 mM NaF, 1 mM sodium vanadate, 1 mM DTT, pH 7.5. One complete EDTA-free tablet (protease inhibitor cocktail, Roche Diagnostics, 1873580) per 25 mL buffer was added. The material was dounced 10 times using a mechanized POTTER S, transferred to 50 mL falcon tubes, incubated for 30 minutes on ice and spun down for 10 minutes at 20,000 g at 4° C. (10,000 rpm in Sorvall SLA600, precooled). The supernatant was transferred to an ultracentrifuge (UZ)-polycarbonate tube (Beckmann, 355654) and spun for 1 hour at 100.000 g at 4° C. (33.500 rpm in Ti50.2, precooled). The supernatant was transferred again to a fresh 50 mL falcon tube, the protein concentration was determined by a Bradford assay (BioRad) and samples containing 50 mg of protein per aliquot were prepared. The samples were immediately used for experiments or frozen in liquid nitrogen and stored frozen at −80° C.
(§5) Cell lysate (approximately 50 mg protein per plate) was thawed in a water bath at room temperature and then stored on ice. To the thawed cell lysate 1×DP 0.8% NP40 buffer containing protease inhibitors (1 tablet for 25 mL buffer; EDTA-free protease inhibitor cocktail; Roche Diagnostics 1873580) was added in order to reach a final protein concentration of 10 mg/mL total protein. The diluted cell lysate was stored on ice. Mixed Molt4/Ramos lysate was prepared by combining one volume of Molt4 lysate and two volumes of Ramos lysate (ratio 1:2).
(§6) To a 96 well filter plate (Multiscreen HTS, BV Filter Plates, Millipore #MSBVN1250) were added per well: 100 μL affinity matrix (3% beads slurry), 3 μL of compound solution, and 50 μL of diluted lysate. Plates were sealed and incubated for 3 hours in a cold room on a plate shaker (Heidolph tiramax 1000) at 750 rpm. […]

JAK2 = target: T2, JAK2 (Homo sapiens, UniProt O60674); test: Kinobeads assay, JAK2 (competition binding in mixed Molt4/Ramos cell lysate, dot blot detection); conditions: read-out: JAK2 Band (Kinobeads assay potency, IC50)
T2 construct: endogenous in cells; host or cells: Molt4 (ATCC CRL-1582) and Ramos (ATCC CRL-1596), mixed lysate 1:2
T2 sequence (O60674 whole entry): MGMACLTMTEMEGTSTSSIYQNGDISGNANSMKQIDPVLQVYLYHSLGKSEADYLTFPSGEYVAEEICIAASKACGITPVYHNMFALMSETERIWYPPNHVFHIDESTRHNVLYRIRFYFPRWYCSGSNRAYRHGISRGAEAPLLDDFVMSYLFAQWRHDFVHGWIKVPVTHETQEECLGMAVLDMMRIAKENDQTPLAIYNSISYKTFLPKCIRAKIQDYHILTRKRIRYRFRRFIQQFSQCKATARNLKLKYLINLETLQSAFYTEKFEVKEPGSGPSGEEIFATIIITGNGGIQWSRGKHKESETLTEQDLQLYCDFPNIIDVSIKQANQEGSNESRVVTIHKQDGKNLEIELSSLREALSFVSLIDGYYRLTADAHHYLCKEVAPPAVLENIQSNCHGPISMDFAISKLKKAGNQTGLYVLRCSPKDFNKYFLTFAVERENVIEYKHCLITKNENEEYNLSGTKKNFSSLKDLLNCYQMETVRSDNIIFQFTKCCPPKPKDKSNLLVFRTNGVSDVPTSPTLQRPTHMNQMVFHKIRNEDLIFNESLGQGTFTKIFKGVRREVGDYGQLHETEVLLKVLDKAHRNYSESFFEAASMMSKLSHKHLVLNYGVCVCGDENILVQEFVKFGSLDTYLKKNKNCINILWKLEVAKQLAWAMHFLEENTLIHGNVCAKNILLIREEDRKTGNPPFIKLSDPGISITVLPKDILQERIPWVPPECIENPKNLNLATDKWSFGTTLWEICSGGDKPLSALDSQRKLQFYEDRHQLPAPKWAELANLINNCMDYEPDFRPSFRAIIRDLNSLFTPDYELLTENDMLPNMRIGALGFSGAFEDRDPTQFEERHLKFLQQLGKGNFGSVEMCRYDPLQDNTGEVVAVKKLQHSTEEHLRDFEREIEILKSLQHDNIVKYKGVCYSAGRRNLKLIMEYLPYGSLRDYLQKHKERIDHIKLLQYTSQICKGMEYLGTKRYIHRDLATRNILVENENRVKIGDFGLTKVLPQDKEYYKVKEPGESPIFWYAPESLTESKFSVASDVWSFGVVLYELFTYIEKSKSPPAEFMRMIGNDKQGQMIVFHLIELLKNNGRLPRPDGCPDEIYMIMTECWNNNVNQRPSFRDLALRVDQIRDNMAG
Experimental: as §1, §2, §3, §4, §5, §6

[1] = Kinobeads assay, Molt4/Ramos lysate, read-out: TYK2 Band (Kinobeads assay potency, IC50)

Row | SMILES | pIC50 (TYK2; [1]) | pIC50 (JAK2) | pIC50 (TYK2; read-out: TYK2 IC50)
1 | CCOC(=O)Cn1cc(Nc2ncc(Cl)c(NCc3ccccc3)n2)cn1 [Example I-225] | 6.00 to 7.00 | 5.00 to 6.00 | –
2 | Cc1cnc(Nc2cnn(C)c2)nc1NCc1cc(F)cc(F)c1 [Example I-343] | 7.00 to 8.00 | 7.00 to 8.00 | –
3 | NC(=O)Cn1cc(Nc2ncc(Cl)c(NCc3c(Cl)cccc3Cl)n2)cn1 [Example I-324] | 7.00 to 8.00 | 6.00 to 7.00 | –
4 | Cn1ncnc1Cn1cc(Nc2ncc(Cl)c(NCc3ccccc3)n2)cn1 [Example I-250] | 5.00 to 6.00 | 5.00 to 6.00 | –
5 | O=C(Cn1cc(Nc2nccc(NCc3c(F)cccc3Cl)n2)cn1)N1CCOCC1 [Example I-129] | ≥ 8.00 | < 5.00 | –
6 | O=C(Cn1cc(Nc2nccc(NCc3c(F)cccc3F)n2)cn1)NC1CC1 [Example I-152] | 7.00 to 8.00 | 5.00 to 6.00 | –
7 | Cn1cc(Nc2ncc(F)c(NCc3c(F)cc(S(N)(=O)=O)cc3F)n2)cn1 [Example I-379] | 7.00 to 8.00 | 5.00 to 6.00 | –
8 | C[C@H](CO)NC(=O)Cn1cc(Nc2nccc(NCc3c(F)cccc3Cl)n2)cn1 [Example I-106] | ≥ 8.00 | 5.00 to 6.00 | –
9 | C[C@H](CO)NC(=O)Cn1cc(Nc2nccc(NCc3c(F)ccc(C#N)c3F)n2)cn1 [Example I-154] | ≥ 8.00 | 5.00 to 6.00 | –
10 | Cc1cccc(F)c1CNc1ccnc(Nc2cnn(C)c2)n1 [Example I-437] | 7.00 to 8.00 | 5.00 to 6.00 | –
11 | CCOc1ccc(F)c(CNc2nc(Nc3cnn(CC(N)=O)c3)ncc2Cl)c1F [Example I-267] | 7.00 to 8.00 | 6.00 to 7.00 | –
12 | Cc1cnc(Nc2cnn(CC(=O)N3CCOCC3)c2)nc1NCc1c(F)cc(S(N)(=O)=O)cc1F [Example I-378] | ≥ 8.00 | 6.00 to 7.00 | –
13 | OCCn1cc(Nc2ncc(Cl)c(NCc3cccnc3)n2)cn1 [Example I-255] | 6.00 to 7.00 | 5.00 to 6.00 | –
14 | CC(C)(O)Cn1cc(Nc2ncc(Cl)c(NCc3cc(F)ccc3F)n2)cn1 [Example I-292] | 6.00 to 7.00 | 6.00 to 7.00 | –
15 | CS(=O)(=O)c1ccc(F)c(CNc2nc(Nc3cnn(CC(N)=O)c3)ncc2F)c1 [Example I-116] | 7.00 to 8.00 | 5.00 to 6.00 | –
16 | Cn1cc(Nc2nccc(NCc3c(F)cc(F)cc3F)n2)cn1 [Example I-310] | 6.00 to 7.00 | < 5.00 | –
17 | CNC(=O)Cn1cc(Nc2ncc(Cl)c(NCc3cc(C(F)(F)F)ccc3Cl)n2)cn1 [Example I-280] | 7.00 to 8.00 | 6.00 to 7.00 | –
18 | CS(=O)(=O)c1ccccc1CNc1nc(Nc2cnn(CC(N)=O)c2)ncc1Cl [Example I-450] | 6.00 to 7.00 | 6.00 to 7.00 | –
19 | OCCn1cc(Nc2ncc(Cl)c(NCc3cccc(OC(F)F)c3)n2)cn1 [Example I-322] | 7.00 to 8.00 | 5.00 to 6.00 | –
20 | Cc1cnc(Nc2cnn(CC(=O)N(C)C)c2)nc1NCc1c(F)cc(F)cc1F [Example I-19] | 7.00 to 8.00 | 6.00 to 7.00 | –
21 | COc1ccc(Cl)c(CNc2ccnc(Nc3cnn(CC(=O)N[C@H](C)CO)c3)n2)c1F [Example I-123] | ≥ 8.00 | 6.00 to 7.00 | –
22 | NS(=O)(=O)c1ccc(CNc2nc(Nc3cnn(CC(=O)N4CCOCC4)c3)ncc2F)cc1 [Example I-11] | 7.00 to 8.00 | < 5.00 | –
23 | C[C@@H](CO)NC(=O)Cn1cc(Nc2nccc(NCc3c(F)cccc3Cl)n2)cn1 [Example I-120] | ≥ 8.00 | 5.00 to 6.00 | –
24 | Cc1cccc(F)c1CNc1ccnc(Nc2cnn(CC(=O)N[C@@H](C)CO)c2)n1 [Example I-156] | ≥ 8.00 | 5.00 to 6.00 | –
25 | Fc1cccc(CNc2nc(Nc3cn[nH]c3)ncc2Cl)c1C(F)(F)F [Example I-136] | 7.00 to 8.00 | 6.00 to 7.00 | –
26 | OCCn1cc(Nc2ncc(F)c(NCc3cccc(F)c3)n2)cn1 [Example I-210] | 7.00 to 8.00 | 6.00 to 7.00 | –
27 | FCCn1cc(Nc2ncc(Cl)c(NCc3ccccc3)n2)cn1 [Example I-461] | 5.00 to 6.00 | 5.00 to 6.00 | –
28 | Cn1cc(Nc2ncc(Cl)c(NCc3cccc(CS(C)(=O)=O)c3)n2)cn1 [Example I-442] | 5.00 to 6.00 | 5.00 to 6.00 | –
29 | COc1c(F)cccc1CNc1nc(Nc2cnn(CC(=O)O)c2)ncc1Cl [Example I-403] | 6.00 to 7.00 | 5.00 to 6.00 | –

The remaining lines, values ahead:

Row | pIC50 (TYK2; [1]) | pIC50 (JAK2) | pIC50 (TYK2; read-out: TYK2 IC50) | SMILES
30 | 6.00 to 7.00 | 6.00 to 7.00 | – | Fc1cccc(F)c1CNc1nc(Nc2cnn(CC(F)F)c2)ncc1Cl [Example I-469]
31 | 7.00 to 8.00 | 5.00 to 6.00 | – | NC(=O)Cn1cc(Nc2nccc(NCc3c(F)cccc3F)n2)cn1 [Example I-313]
32 | ≥ 8.00 | 5.00 to 6.00 | > 7.00 | COc1ccc(F)c(CNc2ccnc(Nc3cnn(CC(=O)NC4CC4)c3)n2)c1F [Example I-125]
33 | 6.00 to 7.00 | 5.00 to 6.00 | – | Cc1cnc(Nc2cnn(CC(F)F)c2)nc1NCc1cccc(S(C)(=O)=O)c1 [Example I-466]
34 | 6.00 to 7.00 | 5.00 to 6.00 | – | CNC(=O)Cn1cc(Nc2ncc(Cl)c(NCc3cc(F)cc(C(F)(F)F)c3)n2)cn1 [Example I-189]
35 | 6.00 to 7.00 | 5.00 to 6.00 | – | CNC(=O)Cn1cc(Nc2ncc(Cl)c(NCc3cccc(OC)c3)n2)cn1 [Example I-243]
36 | 7.00 to 8.00 | 6.00 to 7.00 | – | CNS(=O)(=O)c1ccccc1CNc1nc(Nc2cnn(CCO)c2)ncc1Cl [Example I-472]
37 | ≥ 8.00 | 5.00 to 6.00 | – | COc1ccc(F)c(CNc2ccnc(Nc3cnn(CC(=O)N[C@@H](C)CO)c3)n2)c1F [Example I-133]
38 | 5.00 to 6.00 | 5.00 to 6.00 | – | CS(=O)(=O)c1ccccc1CNc1nc(Nc2cnn(CC3CC3)c2)ncc1Cl [Example I-476]
39 | 7.00 to 8.00 | 6.00 to 7.00 | – | Cc1cnc(Nc2cnn(CC(=O)O)c2)nc1NCc1c(F)ccc(F)c1F [Example I-424]
40 | 7.00 to 8.00 | < 5.00 | – | CNC(=O)Cn1cc(Nc2ncc(F)c(NCc3cccc(OC(F)F)c3)n2)cn1 [Example I-408]
41 | 7.00 to 8.00 | 7.00 to 8.00 | – | Cn1cc(Nc2ncc(Cl)c(NCc3cc(F)cc(F)c3)n2)cn1 [Example I-176]
42 | 7.00 to 8.00 | 5.00 to 6.00 | – | C[C@H](CO)NC(=O)Cn1cc(Nc2nccc(NCc3c(F)cccc3F)n2)cn1 [Example I-490]
43 | 7.00 to 8.00 | 6.00 to 7.00 | – | COc1ccc(Cl)c(CNc2ccnc(Nc3cnn(C)c3)n2)c1F [Example I-61]
44 | 6.00 to 7.00 | 5.00 to 6.00 | – | [2H]C([2H])(O)C([2H])([2H])n1cc(Nc2ncc(Cl)c(NCc3ccccc3)n2)cn1 [Example I-231]
45 | 6.00 to 7.00 | 6.00 to 7.00 | – | CN(C)C(=O)Cn1cc(Nc2ncc(Cl)c(NCc3cccc(CNS(C)(=O)=O)c3)n2)cn1 [Example I-416]
46 | 7.00 to 8.00 | 6.00 to 7.00 | – | Cn1cc(Nc2ncc(Cl)c(NCc3cc(S(C)(=O)=O)ccc3F)n2)cn1 [Example I-99]
47 | 6.00 to 7.00 | 5.00 to 6.00 | – | Cn1cc(Nc2ncc(F)c(NCc3c(F)c(F)cc(F)c3F)n2)cn1 [Example I-462]
48 | ≥ 8.00 | 6.00 to 7.00 | – | Cc1cnc(Nc2cnn(CC(=O)N[C@@H](C)CO)c2)nc1NCc1c(F)cc(F)cc1F [Example I-36]
49 | 7.00 to 8.00 | 6.00 to 7.00 | – | CNC(=O)Cn1cc(Nc2ncc(Cl)c(NCc3cc(F)ccc3S(C)(=O)=O)n2)cn1 [Example I-438]
